# Test results taken from US10550095B2, “Cancerous cell growth inhibiting compounds” (WISYS TECHNOLOGY FOUNDATION, INC., priority 2016, dated 2020).
# “And” between values parts separate entries of the source, which are not always exact repeats. Equal entries are not always repeated. “Also recorded” adds a separate entry of the source.
# Columns and labels:
# MITF [1] = assay: RT-qPCR of MITF (mit-f) in melanoma cells; type: cell-based, mouse
# Excerpt: (§1) To understand how A11 inhibits melanoma proliferation, we examined the MITF expression level in A11-treated B16-F10 cells by western blot and RT-qPCR.
# (§2) The results of several qPCR experiments using melanoma cells were compiled in FIG. 20. Pax3 and sox10 are genes determine the melanocyte precursors while mit-f is the specific transcription factor that initiates melanocyte differentiation. Dct and tyr genes are expressed in differentiated melanocytes. […] The decrease in magnitude is not significant likely due to the very heterogeneous cell types in melanoma.
# tyrosinase [2] = assay: Effect on tyrosinase expression (FIG. 8)
# Excerpt: FIG. 8 is a graph of the effects of various pigment reducing compositions on tyrosinase expression;
# (§3) The intracellular signaling pathway that involves Raf and MEK is known to be the major pathway to regulate cell proliferation. Many current melanoma drugs such as cobimetinib works by inhibiting Raf or MEK. While they are effective in inhibiting melanoma growth, they exert different degrees of side effect on normal cells by inhibiting the Raf-MEK pathway. […] Also, with regard to FIG. 13, the compound SK-03-92 is shown to inhibit melanoma cell growth by approximately 10% at 10 μM and at 100% at 40 μM.
# zebrafish embryos [3] = assay: Effect on existing melanin and/or melanocytes, embryos treated at 48 hpf (Protocol 2); type: in vivo
# Experimental: (§4) The testing protocols for these compounds are as follows: • a. […] The embryos were monitored and imaged throughout their development to track the development of melanin pigment relative to a control group to which water was administered (Protocol 1). • b. To test the effects of the drugs on existing melanin and/or melanocytes, the embryos were treated with the chemicals at 48 hpf, after pigment had developed. The embryos were again monitored and imaged throughout their development relative to a control group to which water was administered (Protocol 2). • c. Additionally, to test the ability of the pigment to recover after being treated with our drugs, all embryos were treated at 24 hpf with the chemicals until the 48 hpf or 64 hpf time period, then washed with water to remove the treatment. The embryos were again monitored and imaged throughout their development relative to a control group to which water was administered (Protocol 3).
# To test the effects of the drugs on existing melanin and/or melanocytes, the embryos were treated with the chemicals A11, MEK-I and PTU at 48 hpf, after pigment had developed. The embryos were again monitored and imaged throughout their development according to Protocol 2.
# Pax3 = assay: RT-qPCR of Pax3 in melanoma cells; type: cell-based, mouse
# Excerpt: as §1, §2
# melanoma cells = assay: Mitotic index of melanoma cells (anti-phospho-histone H3 antibody); type: cell-based, mouse; settings: anti-phospho-histone H3 (FIG. 16)
# MAPK = assay: Western blot for phosphorylated MAPK in melanoma cells; type: cell-based, mouse; settings: melanoma cells (FIG. 19A)
# Excerpt: We wanted to further understand the molecular mechanism of A11 and its derivatives by examining the activities of MAPK, Akt, and PRPP pathways which regulate cell proliferation and cell death.
# MAPK is involved in the major cell proliferation signaling pathway. In many cancer cells, MAPK is activated at high level by phosphorylation. Using the anti-phosphorylated-MAPK (p-MAPK) on western blot, it is very easy to understand the proliferation ability in cells. […] While the results are against our hypothesis and current understanding, it raises a very interesting mechanism of A11 which requires further investigation. […] The current understanding is that activated MAPK and Akt both lead to cell proliferation.
# zebrafish embryos [4] = assay: Inhibition of melanin synthesis in zebrafish embryos, treated 24-76 hpf (Protocol 1); type: in vivo; settings: zebrafish embryos treated 24-76 hpf
# Experimental: as §4, with “To test the effects of the drugs on existing melanin and/or melanocytes, the embryos were treated with the chemicals at 48 hpf, after pigment had developed.” left out
# (§5) The black pigment (or melanin) is very easy to observe in zebrafish. In brief, adult zebrafish are taken to breed embryos. Morphologically normal embryos of 24 hours post fertilization (hpf) stage were selected for incubation in the drugs from 24 to 76 hours. During the incubation, the embryos are monitored and imaged (see FIGS. 1 and 3) to track the development of melanin. […] To broaden the comparison with other skin-whitening products, this project can also test at least three other compounds, Kojic acid, Gallic acid and Haginin. […] In the meantime, the whole organism context also allows us to examine the toxicological profile, if any, of these compounds.
# B16-F10 melanoma cells [5] = assay: cells; type: cell-based
# B16-F10 melanoma cells [6] = assay: Melanin in melanoma cells; type: cell-based, mouse; settings: for Melanin: melanoma cells
# Excerpt: (MEK-I is a known MEK inhibitor as a comparison purchased from Sigma): […]
# [7] = test system: melanocytes in zebrafish embryos; assay: TUNEL assay, melanocyte apoptosis in normal and transgenic melanoma-forming zebrafish embryos; type: in vivo; settings: normal and transgenic melanoma-forming embryos (FIGS. 18A-18B)
# MEK = MEK activity (FIG. 12)
# Excerpt: FIG. 12 are photo illustrations of MEK activity with exemplary embodiments of the human drug treatments of the present invention; and
# as §3
# [8] = test system: dct-expressing cells (differentiated melanocytes); assay: In situ hybridization for the dct gene in zebrafish embryos; type: in vivo; settings: zebrafish embryos (FIG. 22)
# Excerpt: To further understand the mechanism of A11, we examined the development of melanocytes by in situ hybridization for the dct (dopachrome tautomerase) gene which is expressed in differentiated melanocytes.
# tyrosinase [9] = assay: RT-qPCR of tyrosinase in melanoma cells; type: cell-based, mouse
# Excerpt: as §1, §2
# zebrafish embryos [10] = assay: Skin Lightening Efficacy of All Analogs on Zebrafish Embryos (Table 1); type: in vivo; settings: concentration not given
# Experimental: as §4, with “To test the effects of the drugs on existing melanin and/or melanocytes, the embryos were treated with the chemicals at 48 hpf, after pigment had developed.” left out
# as §5
# zebrafish embryos [11] = assay: Pigment recovery after compound withdrawal (Protocol 3); type: in vivo; settings: treated 24-48 hpf or 24-64 hpf, then washed, by 72 hpf
# Experimental: as §4
# It has been reported that melanin usually reappears after the withdrawal of skin whitening products. […] The pigmentation was monitored closely for 48-72 hours. Similarly, this experiment was repeated at least three times to gain a reproducible result.
# MITF [12] = assay: Western blot for MITF protein level in B16-F10 cells; type: cell-based, mouse; settings: western blot vs DMSO control (FIG. 21)
# Excerpt: as §1
# [13] = test system: primary human melanocytes; assay: Growth of normal melanocytes; type: cell-based
# Experimental: These cells proliferate slowly making it difficult to gather enough cells for experiments with all the A11 analogs. […] In the second experiment, A7 and a few other compounds were evaluated. […] At 10 μM, FSK-03-92 caused near 80% lethality (comparing with the 20% kill by 10 μM FSK-03-92 on melanoma cells in FIG. 14).
# [14] = test system: DCT (dopachrome tautomerase); assay: RT-qPCR of DCT in melanoma cells; type: cell-based, mouse
# Excerpt: as §1, §2
# Akt = assay: Western blot for phosphorylated Akt in melanoma cells; type: cell-based, mouse; settings: western blot (FIG. 19B)
# [15] = test system: melanocytes in zebrafish embryos; assay: Mitotic index of melanocytes in zebrafish embryos; type: in vivo; settings: zebrafish embryo (FIG. 17)
# [16] = test system: transgenic melanoma zebrafish embryos; assay: Melanoma formation and recovery in transgenic melanoma zebrafish embryos; type: in vivo
# Experimental: as §3
smiles,measurement,setting,value
"COc1cc(O)cc(/C=C/Oc2ccccc2C)c1 [Analog A11, 2-Methylphenyl-E-(3-hydroxy-5-methoxy)-styryl Ether]",MITF (mit-f) mRNA expression (in words),MITF [1],lower amount of MITF mRNA; also recorded: expressed at high level; also recorded: decreases the expression of mit-f gene
same,tyrosinase formation (in words),tyrosinase [2],not to inhibit tyrosinase formation
same,existing pigment remaining,zebrafish embryos [3],20%
same,Pax3 expression (in words),Pax3,reduces Pax3 expression
same,mitotic index of melanoma cells (in words),melanoma cells,significantly lower mitotic index
same,amount of p-MAPK / MAPK activity (in words),MAPK,significantly increase the MAPK activity; also recorded: increases the amount of p-MAPK
same,pigmentation inhibition (in words),zebrafish embryos [4],nearly complete pigmentation loss; also recorded: inhibits pigmentation formation
same,Pigmentation,zebrafish embryos [4]; 10 μM,< 5%
same,Average Melanoma growth (from the previous chart),B16-F10 melanoma cells [5]; 2 μM,86%
same,Average Melanoma growth (from the previous chart),B16-F10 melanoma cells [5]; 10 μM,88%
same,Average Melanoma growth (from the previous chart),B16-F10 melanoma cells [5]; 20 μM,81%
same,Average Melanoma growth (from the previous chart),B16-F10 melanoma cells [5]; 40 μM,50%
same,cell proliferation compared to the control,B16-F10 melanoma cells [5]; 40 μM (FIG. 14),50%
same,EC50,"B16-F10 melanoma cells [5]; Mus musculus, B16-F10, melanoma cells (FIG. 14), read-out: EC50 in inhibiting melanoma growth",~40 µM
same,melanoma cell death (in words),B16-F10 melanoma cells [5]; any of the tested concentrations,no cell death was observed
same,inhibition of melanoma cell growth / cell number (in words),B16-F10 melanoma cells [5]; melanoma cells,decrease of melanin as well as the cell number
same,Growth,"B16-F10 melanoma cells [5]; melanoma cells, 2 μM",86%
same,Growth,"B16-F10 melanoma cells [5]; melanoma cells, 10 μM",88% and 92% and 101% and 69%
same,Growth,"B16-F10 melanoma cells [5]; melanoma cells, 20 μM",81% and 80%
same,Melanin,B16-F10 melanoma cells [6]; 2 μM,99%
same,Melanin,B16-F10 melanoma cells [6]; 10 μM,104% and 84% and 97% and 95% and 100%
same,Melanin,B16-F10 melanoma cells [6]; 20 μM,101% and 92%
same,Melanin,B16-F10 melanoma cells [6]; 40 μM,84% and 68% and 56%
same,melanin in B16-F10 cells (in words),B16-F10 melanoma cells [6]; mouse cell line B16-F10,decrease of melanin
same,melanocyte apoptosis / cell death (in words),[7],does not induce apoptosis; also recorded: no significant difference
same,MEK activity (in words),MEK,increasing MEK activity
same,number of dct-expressing cells (in words),[8],significantly lower than in the control
same,tyrosinase expression (in words),tyrosinase [9],decreased
same,Pigmentation,zebrafish embryos [10],10%
same,pigmentation recovered after wash-off,zebrafish embryos [11],50%
same,pigmentation recovered after wash-off,zebrafish embryos [11]; listed as A-11,approximately 50%
same,MITF protein level (in words),MITF [12],distinguishably lower
same,toxicity to normal melanocytes (in words),[13],does not seem to cause high toxicity
same,inhibition of growth of normal melanocytes (in words),[13]; 10 μM,did not show any inhibition
same,DCT expression (in words),[14],decreased
same,phosphorylated Akt (in words),Akt,slight increase of phosphorylated Akt
same,mitosis / mitotic index of melanocytes (in words),[15],reduces mitosis
same,formation and recovery of melanoma (in words),[16],inhibited the formation and recovery of melanoma; also recorded: inhibit both the formation of melanoma and the recovery of melanoma
